This is an account of results in patent US20260242419A1, “A CYCLIC PEPTIDE FOR TRAPPING INTERLEUKIN-1 BETA” (Merck Sharp & Dohme LLC, priority 2023, published 2026).

pIC50: −log10 of the molar value. Starred links: 1 amine or outer side, 2 acyl side, 3 side chain; linkers in the order of their positions; H or OH if unused. Non-standard residues stand in square brackets, D forms with d. Residues, ends and D or L forms follow the SMILES beside them. dPro(4R-(4-pyridylmethyl)) = O=C(O)[C@H]1C[C@@H](Cc2ccncc2)CN1; Ala(piperidin-4-yl) = O=C([C@H](CC1CCN([*:3])CC1)N[*:1])[*:2]; Trp(βS-Me,4-F) = C[C@@H](c1c[nH]c2cccc(F)c12)[C@H](N)C(=O)O; Bip(4'-COOH) = N[C@@H](Cc1ccc(-c2ccc(C(=O)O)cc2)cc1)C(=O)O; Ala(1-bicyclo(1.1.1)pentyl) = N[C@@H](CC12CC(C1)C2)C(=O)O; dPro(4R-Bzl(4-F)) = O=C(O)[C@H]1C[C@@H](Cc2ccc(F)cc2)CN1; Ala(morpholin-4-yl) = N[C@@H](CN1CCOCC1)C(=O)O; Ala(piperazin-1-yl) = N[C@@H](CN1CCNCC1)C(=O)O; Phe(4-COOH) = N[C@@H](Cc1ccc(C(=O)O)cc1)C(=O)O; Pro(cis-4-F) = O=C(O)[C@@H]1C[C@H](F)CN1; d(αMeS) = C[C@@](N)(CO)C(=O)O; αMeK = C[C@](N)(CCCCN)C(=O)O; Dab = NCC[C@H](N)C(=O)O; Aib = CC(C)(N)C(=O)O

T1 sequence (P01584 117-269): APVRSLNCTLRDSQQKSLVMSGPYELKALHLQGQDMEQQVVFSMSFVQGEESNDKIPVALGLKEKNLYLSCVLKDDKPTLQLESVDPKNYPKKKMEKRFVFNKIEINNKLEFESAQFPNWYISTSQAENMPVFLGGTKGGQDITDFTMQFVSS

The assay has as its target T1, IL-1β (Homo sapiens, UniProt P01584).
T1 construct: purchased BioLegend 579404
Kind of assay: IL-6 assay in MRC5 cells: inhibition of IL-1β induced IL-6 secretion (AlphaLISA). In kind it is cell-based. The note with it: inhibition of IL-1β induced IL-6 secretion in MRC5 cells; read-out: MRC5 IC50. The gist of the method: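 Compound was pre-incubated 1 h at ambient temperature with recombinant human IL-1β at 2λ EC80 before adding human lung fibroblast MRC5 cells (3000/well) in EMEM with 0.025% BSA. After overnight culture at 37 °C, 5% CO2, secreted IL-6 in conditioned medium was measured by AlphaLISA; IC50 from 4-parameter logistic fits.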
Background: Alpha assays give light when donor and acceptor beads are brought close together.
As usually defined, the pIC50 is the negative decadic logarithm of the IC50, by convention in mol/L. In the case of `C[C@@H](c1c[nH]c2cccc(F)c12)[C@@H]1NC(=O)[C@@H]2C[C@H](F)CN2C(=O)CNC(=O)[C@H](Cc2ccc(C(=O)O)cc2)NC(=O)[C@H](CC23CC(C2)C3)NC(=O)[C@H](Cc2ccc(-c3ccc(C(=O)O)cc3)cc2)NC(=O)[C@H]2C[C@@H](Cc3ccc(F)cc3)CN2C(=O)CNC(=O)[C@H](CCN)NC(=O)[C@H](CCC(N)=O)NC(=O)[C@H](CC2CCNCC2)NC(=O)[C@@](C)(CO)NC(=O)[C@H](Cc2c[nH]c3ccccc23)NC(=O)[C@H](CO)NC(=O)C(C)(C)NC1=O` [Example 172] (cyclo([Bip(4'-COOH)][Ala(1-bicyclo(1.1.1)pentyl)][Phe(4-COOH)]G[Pro(cis-4-F)][Trp(βS-Me,4-F)][Aib]SW[d(αMeS)][Ala(piperidin-4-yl)]Q[Dab]G[dPro(4R-Bzl(4-F))])), the pIC50 was 10.80.

As to `C[C@@H](c1c[nH]c2cccc(F)c12)[C@@H]1NC(=O)[C@@H]2C[C@H](F)CN2C(=O)CNC(=O)[C@H](Cc2ccc(C(=O)O)cc2)NC(=O)[C@H](CC23CC(C2)C3)NC(=O)[C@H](Cc2ccc(-c3ccc(C(=O)O)cc3)cc2)NC(=O)[C@H]2C[C@@H](Cc3ccc(F)cc3)CN2C(=O)CNC(=O)[C@H](CO)NC(=O)[C@H](CCC(N)=O)NC(=O)[C@H](CN2CCOCC2)NC(=O)[C@](C)(CCCCN)NC(=O)[C@H](Cc2c[nH]c3ccccc23)NC(=O)[C@H](CO)NC(=O)C(C)(C)NC1=O` [Example 173] (cyclo([Bip(4'-COOH)][Ala(1-bicyclo(1.1.1)pentyl)][Phe(4-COOH)]G[Pro(cis-4-F)][Trp(βS-Me,4-F)][Aib]SW[αMeK][Ala(morpholin-4-yl)]QSG[dPro(4R-Bzl(4-F))])), the pIC50 is 10.43.

Regarding `C[C@@H](c1c[nH]c2cccc(F)c12)[C@@H]1NC(=O)[C@@H]2C[C@H](F)CN2C(=O)CNC(=O)[C@H](Cc2ccc(C(=O)O)cc2)NC(=O)[C@H](CC23CC(C2)C3)NC(=O)[C@H](Cc2ccc(-c3ccc(C(=O)O)cc3)cc2)NC(=O)[C@H]2C[C@@H](Cc3ccc(F)cc3)CN2C(=O)CNC(=O)[C@H](CCN)NC(=O)[C@H](CCC(N)=O)NC(=O)[C@H](CN2CCOCC2)NC(=O)[C@](C)(CCCCN)NC(=O)[C@H](Cc2c[nH]c3ccccc23)NC(=O)[C@H](CO)NC(=O)C(C)(C)NC1=O` [Example 174] (cyclo([Bip(4'-COOH)][Ala(1-bicyclo(1.1.1)pentyl)][Phe(4-COOH)]G[Pro(cis-4-F)][Trp(βS-Me,4-F)][Aib]SW[αMeK][Ala(morpholin-4-yl)]Q[Dab]G[dPro(4R-Bzl(4-F))])), the pIC50 is 10.60.

Turning to `C[C@@H](c1c[nH]c2cccc(F)c12)[C@@H]1NC(=O)[C@@H]2C[C@H](F)CN2C(=O)CNC(=O)[C@H](Cc2ccc(C(=O)O)cc2)NC(=O)[C@H](CC23CC(C2)C3)NC(=O)[C@H](Cc2ccc(-c3ccc(C(=O)O)cc3)cc2)NC(=O)[C@H]2C[C@@H](Cc3ccc(F)cc3)CN2C(=O)CNC(=O)[C@H](CO)NC(=O)[C@H](CCC(N)=O)NC(=O)[C@H](CN2CCNCC2)NC(=O)[C@](C)(CCCCN)NC(=O)[C@H](Cc2c[nH]c3ccccc23)NC(=O)[C@H](CO)NC(=O)C(C)(C)NC1=O` [Example 175] (cyclo([Bip(4'-COOH)][Ala(1-bicyclo(1.1.1)pentyl)][Phe(4-COOH)]G[Pro(cis-4-F)][Trp(βS-Me,4-F)][Aib]SW[αMeK][Ala(piperazin-1-yl)]QSG[dPro(4R-Bzl(4-F))])), the pIC50 is 10.43.

As to `C[C@@H](c1c[nH]c2cccc(F)c12)[C@@H]1NC(=O)[C@@H]2C[C@H](F)CN2C(=O)CNC(=O)[C@H](Cc2ccc(C(=O)O)cc2)NC(=O)[C@H](CC23CC(C2)C3)NC(=O)[C@H](Cc2ccc(-c3ccc(C(=O)O)cc3)cc2)NC(=O)[C@H]2C[C@@H](Cc3ccncc3)CN2C(=O)CNC(=O)[C@H](CO)NC(=O)[C@H](CCC(N)=O)NC(=O)[C@H](CC2CCNCC2)NC(=O)C(C)(C)NC(=O)[C@H](Cc2c[nH]c3ccccc23)NC(=O)[C@H](CCC(=O)O)NC(=O)C(C)(C)NC1=O` [Example 176] (cyclo([Bip(4'-COOH)][Ala(1-bicyclo(1.1.1)pentyl)][Phe(4-COOH)]G[Pro(cis-4-F)][Trp(βS-Me,4-F)][Aib]EW[Aib][Ala(piperidin-4-yl)]QSG[dPro(4R-(4-pyridylmethyl))])), the pIC50 was 10.44.

`C[C@@H](c1c[nH]c2cccc(F)c12)[C@@H]1NC(=O)[C@@H]2C[C@H](F)CN2C(=O)CNC(=O)[C@H](Cc2ccc(C(=O)O)cc2)NC(=O)[C@H](CC23CC(C2)C3)NC(=O)[C@H](Cc2ccc(-c3ccc(C(=O)O)cc3)cc2)NC(=O)[C@H]2C[C@@H](Cc3ccncc3)CN2C(=O)CNC(=O)[C@H](CO)NC(=O)[C@H](CCC(N)=O)NC(=O)[C@H](CN2CCOCC2)NC(=O)[C@@](C)(CO)NC(=O)[C@H](Cc2c[nH]c3ccccc23)NC(=O)[C@H](CCC(=O)O)NC(=O)C(C)(C)NC1=O` [Example 177] (cyclo([Bip(4'-COOH)][Ala(1-bicyclo(1.1.1)pentyl)][Phe(4-COOH)]G[Pro(cis-4-F)][Trp(βS-Me,4-F)][Aib]EW[d(αMeS)][Ala(morpholin-4-yl)]QSG[dPro(4R-(4-pyridylmethyl))])): the negative-log IC50 (pIC50) was 10.51.

As to `C[C@@H](c1c[nH]c2cccc(F)c12)[C@@H]1NC(=O)[C@@H]2C[C@H](F)CN2C(=O)CNC(=O)[C@H](Cc2ccc(C(=O)O)cc2)NC(=O)[C@H](CC23CC(C2)C3)NC(=O)[C@H](Cc2ccc(-c3ccc(C(=O)O)cc3)cc2)NC(=O)[C@H]2C[C@@H](Cc3ccncc3)CN2C(=O)CNC(=O)[C@H](CO)NC(=O)[C@H](CCC(N)=O)NC(=O)[C@H](CC2CCNCC2)NC(=O)[C@@](C)(CO)NC(=O)[C@H](Cc2c[nH]c3ccccc23)NC(=O)[C@H](CCC(=O)O)NC(=O)C(C)(C)NC1=O` [Example 178] (cyclo([Bip(4'-COOH)][Ala(1-bicyclo(1.1.1)pentyl)][Phe(4-COOH)]G[Pro(cis-4-F)][Trp(βS-Me,4-F)][Aib]EW[d(αMeS)][Ala(piperidin-4-yl)]QSG[dPro(4R-(4-pyridylmethyl))])), the pIC50 is 10.39.

For the molecule `C[C@@H](c1c[nH]c2cccc(F)c12)[C@@H]1NC(=O)[C@@H]2C[C@H](F)CN2C(=O)CNC(=O)[C@H](Cc2ccc(C(=O)O)cc2)NC(=O)[C@H](CC23CC(C2)C3)NC(=O)[C@H](Cc2ccc(-c3ccc(C(=O)O)cc3)cc2)NC(=O)[C@H]2C[C@@H](Cc3ccncc3)CN2C(=O)CNC(=O)[C@H](CO)NC(=O)[C@H](CCC(N)=O)NC(=O)[C@H](CN2CCOCC2)NC(=O)C(C)(C)NC(=O)[C@H](Cc2c[nH]c3ccccc23)NC(=O)[C@H](CO)NC(=O)C(C)(C)NC1=O` [Example 179] (cyclo([Bip(4'-COOH)][Ala(1-bicyclo(1.1.1)pentyl)][Phe(4-COOH)]G[Pro(cis-4-F)][Trp(βS-Me,4-F)][Aib]SW[Aib][Ala(morpholin-4-yl)]QSG[dPro(4R-(4-pyridylmethyl))])), the pIC50 was 10.54.

In the case of `C[C@@H](c1c[nH]c2cccc(F)c12)[C@@H]1NC(=O)[C@@H]2C[C@H](F)CN2C(=O)CNC(=O)[C@H](Cc2ccc(C(=O)O)cc2)NC(=O)[C@H](CC23CC(C2)C3)NC(=O)[C@H](Cc2ccc(-c3ccc(C(=O)O)cc3)cc2)NC(=O)[C@H]2C[C@@H](Cc3ccncc3)CN2C(=O)CNC(=O)[C@H](CO)NC(=O)[C@H](CCC(N)=O)NC(=O)[C@H](CC2CCNCC2)NC(=O)C(C)(C)NC(=O)[C@H](Cc2c[nH]c3ccccc23)NC(=O)[C@H](CO)NC(=O)C(C)(C)NC1=O` [Example 180] (cyclo([Bip(4'-COOH)][Ala(1-bicyclo(1.1.1)pentyl)][Phe(4-COOH)]G[Pro(cis-4-F)][Trp(βS-Me,4-F)][Aib]SW[Aib][Ala(piperidin-4-yl)]QSG[dPro(4R-(4-pyridylmethyl))])), the pIC50 was 10.57.
